{"source": "patent US6706491B1", "about": "“Reagents and methods for identifying and modulating expression of genes regulated by p21” (The Board of Trustees of the University of Illinois, priority 1999, dated 2004)", "key": {"[1]": {"tested_on": "HS 15.T cells", "assay": "Mitogenic activity assay (3H-thymidine incorporation)", "type": "cell-based, human", "details": "media supplemented with 1% or 2% FCS; 60 hr then 24 hrs label", "method": "(§1) In these experiments, conditioned media were prepared by plating 10^6 p12-9 cells per 15 cm plate in the presence of DMEM/10% FCS. The next day, IPTG was added to a final concentration of 50 μM, and this media was replaced three days later with DMEM supplemented with 0.5% FCS and 50 μM IPTG. Two days later (days 3-5 of IPTG treatment), this conditioned media was collected and stored at 4° C. up to 15 days before use. Control media were prepared by adding IPTG-free DMEM/0.5% FCS to untreated cells grown to the same density as IPTG-treated cells and collecting the media two days thereafter.\nThe slow-growing human fibrosarcoma cell line HS 15.T was used to detect mitogenic activity in these conditioned media. For mitogenic activity assays, both types of conditioned media, as well as fresh media and 1:1 mixtures of conditioned media and fresh media were used to test mitogenic activity. In these experiments, the conditioned media were supplemented with 1% or 2% FCS. Briefly, HS 15.T cells were plated in 12-well plates at 15,000 cells per well. Two days later, these cells were cultured in different types of media. […] Cells were then collected and their ^3H-thymidine incorporation determined as described by Mosca et al. (1992, Mol. Cell. Biol. 12: 4375-4383)."}, "[2]": {"tested_on": "C8 cells", "assay": "Apoptosis / cell survival assay in low serum", "type": "cell-based, mouse", "details": "IPTG added by itself", "method": "as §1\nThe effect of this conditioned media on apoptosis was also determined. These experiments used a mouse embryo fibroblast line C8, immortalized by E1A. […] Apoptosis was analyzed by plating 3×10^5 C8 cells per 6-cm plate, and replacing the media on the following day with fresh media supplemented with 0.4% serum or with conditioned media (no fresh serum added). DNA content analysis and DAPI staining were carried out after 24 hrs and 48 hrs, and relative cell numbers were measured by methylene blue staining (Perry et al., 1992, Mutai. Res. 276: 189-197) after 48 hrs in low-serum media."}, "[3]": {"tested_on": "p21", "assay": "p21 induction in p21-9 cells by IPTG (p21 ELISA)", "type": "cell-based, human", "method": "p21 expression from the LNp21CO3 vector in p21-9 cells was induced by culturing the cells in DMEM medium containing 10% fetal calf serum (Hyclone, Logan, Utah) and IPTG. […] Upon removing the cells from IPTG-containing media, p21 expression fell about as rapidly as it had risen, returning to pre-induction levels at about 24 hours after IPTG was removed, (FIG. 2B).\n(§2) Colony assays for recovery from IPTG treatment were performed by plating about 2,000 p21-9 cells per 10 cm culture dish in DMEM/10% FCS and the presence or absence of IPTG. Cells were allowed to form colonies for 10 days before their clonogenic capacity was determined. p12-9 cells were treated with three concentrations of IPTG: 0.5 μM, 5 μM and 50 μM. […] In contrast, continuous exposure of the cells to 5 μM or 50 μM IPTG reduced the clonogenicity of p2l-9 cells by 80% and 100%, respectively.\nExpression of 69 of these genes was individually tested by RT-PCR or northern hybridization with probes derived from inserts of the cDNA clones present in the microarray; these cDNAs were obtained from Genome Systems, Inc. In addition, enzyme-linked immunosorbent assay (ELISA) measurement of p21 protein was carried out using WAF1 ELISA kit (obtained from Oncogene Science, Uniondale, N.Y.) as described (Chang et al., 1999, Oncogene 18: 4808-4818). The following primary antibodies were used for immunoblotting: mouse monoclonal antibodies against Cdc2 (Santa Cruz), cyclin A (NeoMarkers), Plk 1 (Zymed) and Rb (PharMingen); rabbit polyclonal antibodies against MAD2 (BadCo), p107 (Santa Cruz), CTGF (Fisp-12; a gift of Dr. L. Lau), Prc 1 (a gift of Drs. W. Jiang and T. Hunter), and topoisomerase IIα (Ab0284; a gift of Dr. W. T. Beck), and sheep polyclonal antibody against. SOD2 (Calbiochem). Horse radish peroxidase (HRP)-conjugated secondary antibodies used were goat anti-mouse and goat anti-rabbit. IgG (Santa:Cruz) and rabbit anti-sheep IgG (KPL). Protein concentrations in all samples were equalized after measurement with BioRad-protein assay kit. Immunoblotting was carried out by standard procedures, and the signal was detected by chemiluminescence using LumiGlo (KPL)."}, "[4]": {"tested_on": "p21-9 cells", "assay": "Mitotic index (microscopy after DAPI staining) in p21-9 cells", "type": "cell-based, human", "method": "(§3) Cell growth in the presence of IPTG was assayed in three ways: measuring ^3H-thymidine incorporation (termed the “labeling index”); observing the number of mitotic cells in the culture by microscopy (termed the “mitotic index”) and determining the distribution of the culture cells in different portions of the cell cycle (termed the “cell cycle distribution”).\n(§4) The mitogenic index was determined by observing cells microscopically and calculating the number of cells in mitosis after staining with 5 μg/mL 4,6-diamino-2-phenylindole (DAPI), and images were collected using a Leica DMIRB fluorescence microscope and Vaytek (Fairfield, Iowa) imaging system. Microscopically-detectable mitotic cells disappeared from these cultures in the presence of IPTG in two stages: the first occurring between 0-4 hours after IPTG addition (wherein the mitotic index dropped from about 15% in untreated cells to about 5% in IPTG-treated cells) and then again between about 10-14 hours after IPTG addition (wherein the mitotic index dropped to zero at about 13 hours after IPTG addition (FIG. 3B)."}, "[5]": {"tested_on": "p21-9 cells", "assay": "Morphology of mitotic figures after release from IPTG", "type": "cell-based, human", "details": "1-2 days after release", "method": "as §4\nA major difference between cells that were inhibited by IPTG for one day compared with those inhibited for S days emerged, however, when the morphology of attached mitotic cells arising 1-2 days after release from IPTG was examined. […] The percentage of normal mitoses in 1-day and 5-day IPTG treated cells were 45% and 2%, respectively, which is close to the corresponding values for clonogenic recovery (38% and 1%)."}, "[6]": {"tested_on": "p21-9 cells", "assay": "Cell cycle distribution (FACS, propidium iodide) in p21-9 cells", "type": "cell-based, human", "details": "after 24 hrs of 50 μM IPTG", "method": "as §3\nCell cycle distribution was determined using FACS analysis of DNA content after staining with propidium iodide as described by Jordan et al. (1996, Cancer Res. 56: 816-825) using Becton Dickinson FACSort. By this time, 42-43% of IPTG-treated cells were arrested in G1 and G2, respectively, and about 15% of the cells were arrested with S-phase DNA content."}, "[7]": {"tested_on": "p21-9 cells", "assay": "Colony assay for recovery from IPTG treatment", "type": "cell-based, human", "details": "for decreased clonogenicity: 3-5 days treatment; for reduction of clonogenicity: continuous exposure", "method": "as §2"}, "[8]": {"tested_on": "p21-9 cells", "assay": "3H-thymidine labeling index (autoradiography) in p21-9 cells", "type": "cell-based, human", "method": "as §3\n^3H-thymidine incorporation assays were performed substantially as described by Dimri et al. (1995, Proc. Natl. Acad. Sci. USA 92: 9363-9367). Cells were cultured in the presence of ^3H-thymidine for 3h, and then analyzed by autoradiography. DNA replication as determined by autoradiography ceased entirely by 9 hours after addition of IPTG to the culture media (FIG. 3A)."}}}
{"smiles": "CC(C)S[C@@H]1O[C@H](CO)[C@H](O)[C@H](O)[C@H]1O", "note": "[IPTG, isopropyl-β-thiogalactoside]", "values": [{"measurement": "effect on 3H-thymidine incorporation by HS 15.T cells", "setting": "[1]", "result": "no effect"}, {"measurement": "effect on apoptosis in C8 cells", "setting": "[2]", "result": "no effect on apoptosis"}, {"measurement": "increase in p21 gene expression", "setting": "[3]; 0.5 μM IPTG", "result": "no measurable increase over basal p21 levels"}, {"measurement": "increase in p21 gene expression", "setting": "[3]; 5 μM IPTG", "result": "half-maximal"}, {"measurement": "increase in p21 gene expression", "setting": "[3]; 50 μM IPTG", "result": "maximal increase"}, {"measurement": "time of peak p21 expression post-induction", "setting": "[3]; 50 μM IPTG", "result": "about 24 hours"}, {"measurement": "increase in p21 levels", "setting": "[3]; IPTG-treated p21-9 cells, 50 μM IPTG", "result": "15-20 fold"}, {"measurement": "mitotic index", "setting": "[4]; 0-4 hours after addition of 50 μM IPTG, about 15% in untreated cells", "result": "about 5%"}, {"measurement": "time at which mitotic index dropped to zero after IPTG addition", "setting": "[4]; 50 μM IPTG", "result": "about 13 hours"}, {"measurement": "time to resumption of mitosis after IPTG release", "setting": "[4]; after removal of 50 μM IPTG", "result": "about 30 hours"}, {"measurement": "percentage of normal mitoses", "setting": "[5]; 1-day IPTG treatment", "result": 45, "unit": "%"}, {"measurement": "percentage of normal mitoses", "setting": "[5]; 5-day IPTG treatment", "result": 2, "unit": "%"}, {"measurement": "cells arrested in G1 and G2, respectively", "setting": "[6]", "result": "42-43%"}, {"measurement": "cells arrested with S-phase DNA content", "setting": "[6]", "result": "about 15%"}, {"measurement": "colony formation", "setting": "[7]; 0.5 μM IPTG", "result": "did not inhibit colony formation"}, {"measurement": "colony formation", "setting": "[7]; 5 μM IPTG removed after 12 or 14 hours", "result": "substantially undiminished colony formation"}, {"measurement": "decreased clonogenicity", "setting": "[7]; 5 μM IPTG", "result": "55-58%"}, {"measurement": "decrease in clonogenicity", "setting": "[7]; 50 μM IPTG removed after 12 or 14 hours", "result": "58-63%"}, {"measurement": "decreased clonogenicity", "setting": "[7]; 50 μM IPTG", "result": "95-99%"}, {"measurement": "reduction of clonogenicity", "setting": "[7]; 5 μM IPTG", "result": 80, "unit": "%"}, {"measurement": "reduction of clonogenicity", "setting": "[7]; 50 μM IPTG", "result": 100, "unit": "%"}, {"measurement": "time to complete cessation of DNA replication after addition of IPTG", "setting": "[8]; 50 μM IPTG", "result": "≤ 9", "unit": "h"}, {"measurement": "time to resumption of DNA replication after release from IPTG", "setting": "[8]; after removal of 50 μM IPTG", "result": "about 20 hours"}]}
